Laboratory results reported in US9790215B2 (FLATLEY DISCOVERY LAB, LLC, priority 2013, dated 2017).

target: T1, human ΔF508-CFTR (Homo sapiens, UniProt P13569, DEL508-508); experiment: CFTR-YFP High Throughput Assay (YFP halide flux in FRT cells); assay type: cell-based; conditions: FRT cells expressing human ΔF508-CFTR and YFP; forskolin stimulated
T1 construct: expressed in transfected cells
Method: Assays for Detecting and Measuring the Effect of Compounds on dF508-CFTR Channels CFRT-YFP High Throughput Assay:
The following protocol is designed to selectively screen small molecule compounds for F508del CFTR corrector activities in the HTS YFP flux assay. In this protocol, the cells are incubated with testing compounds for 24 hours, washed with PBS, stimulated with forskolin and a standard potentiator, and read on a 384-well HTS plate reader, such as the Hamamatsu FDDD-6000.
(§1) YFP fluorescence intensity is acquired at high speed before and after iodide buffer is injected to the assay cells. Iodide enters the cells via active CFTR channels in the plasma membrane, and quenches the YFP fluorescence. The rate of fluorescence quenching is proportionally related to the total CFTR activities in the cell membrane. dF508-CFTR corrector accelerates YFP quenching by increasing the number of CFTR molecules in the testing cell plasma membrane.
This method was initially developed for bench top plate readers (Galietta et al., 2001), and was adapted to the HTS format (Sui et al. Assay Drug Dev. Technol. 2010).
Fisher Rat Thyroid (FRT) cells stably expressing both human AF508-CFTR and a halide-sensitive yellow fluorescent protein (YFP—H148Q/1152L 25, 22) (Galietta et al., Am. J. Physiol Cell Physiol 281(5), C1734, 2001) were cultured on plastic surface in Coon's modified Ham's F12 medium supplemented with FBS 10%, L-glutamine 2 mM, penicillin 100 U/mL, and streptomycin 100 μg/mL. G418 (0.75-1.0 mg/mL) and zeocin (3.2 ug/mL) were used for selection of FRT cells expressing ΔF508-CFTR and YFP. For primary screening, FRT cells were plated into 384-well black wall, transparent bottom microtiter plates (Costar; Corning Inc.) at a cell density of 20,000-40,000 per well. Test compound was applied to the cells at varying concentrations ranging from […] in either a 2-fold or 3-fold dilution series. Cells were incubated in a cell culture incubator at 37° C. with 5% CO2 for 24-26 h. Assay plates were washed with DPBS media (Thermo, cat# SH30028.02) to remove unbound cells and compound. Stimulation media (25 μL) containing 20 μM Forskolin & 30 μM P3 [6-(Ethyl-phenyl-sulfonyl)-4-oxo-1,4-dihydro-quinoline-3-carboxylic acid 2-methoxy-benzylamide] in Hams F-12 coon's modified media was added to the plate wells and incubated at room temperature for 60-120 min. 25 μL of HEPES-PBS-I buffer (10 mM HEPES, 1 mM MgCl2, 3 mM KCl, 1 mM CaCl2, 150 mM NaI) was then added and fluorescence quench curves (Excitation 500 nm/Emission 540 nm; exposure 136 ms) were immediately recorded on an FDSS-6000 plate reader (Hamamatsu). Quench rates were derived from least squares fitting of the data as described by Sui et al., (2010).
The following protocol is designed to selectively screen small molecule compounds for F508del CFTR potentiator activities in the HTS YFP flux assay. In this protocol, the cells are incubated at 27 C for 24 hours with homogeneously boosted dF508-CFTR expression in the cell membrane by the low temperature, washed with PBS, stimulated with forskolin, and read on a 384-well HTS plate reader, such as the Hamamatsu FDDD-6000.
as §1, with “dF508del-CFTR potentiators accelerate” for “dF508-CFTR corrector accelerates”, “increasing” for “increasing the number of”, “activities” for “molecules”
Fisher Rat Thyroid (FRT) cells stably expressing both human ΔF508-CFTR and a halide-sensitive yellow fluorescent protein (YFP-H148Q/I152L 25, 22) (Galietta et al., Am. J. Physiol Cell Physiol 281(5), C1734, 2001) were cultured on plastic surface in Coon's modified Ham's F12 medium supplemented with FBS 10%, L-glutamine 2 mM, penicillin 100 U/mL, and streptomycin 100 μg/mL. […]

T1 sequence (P13569 with tags, fused parts or gaps DEL508-508): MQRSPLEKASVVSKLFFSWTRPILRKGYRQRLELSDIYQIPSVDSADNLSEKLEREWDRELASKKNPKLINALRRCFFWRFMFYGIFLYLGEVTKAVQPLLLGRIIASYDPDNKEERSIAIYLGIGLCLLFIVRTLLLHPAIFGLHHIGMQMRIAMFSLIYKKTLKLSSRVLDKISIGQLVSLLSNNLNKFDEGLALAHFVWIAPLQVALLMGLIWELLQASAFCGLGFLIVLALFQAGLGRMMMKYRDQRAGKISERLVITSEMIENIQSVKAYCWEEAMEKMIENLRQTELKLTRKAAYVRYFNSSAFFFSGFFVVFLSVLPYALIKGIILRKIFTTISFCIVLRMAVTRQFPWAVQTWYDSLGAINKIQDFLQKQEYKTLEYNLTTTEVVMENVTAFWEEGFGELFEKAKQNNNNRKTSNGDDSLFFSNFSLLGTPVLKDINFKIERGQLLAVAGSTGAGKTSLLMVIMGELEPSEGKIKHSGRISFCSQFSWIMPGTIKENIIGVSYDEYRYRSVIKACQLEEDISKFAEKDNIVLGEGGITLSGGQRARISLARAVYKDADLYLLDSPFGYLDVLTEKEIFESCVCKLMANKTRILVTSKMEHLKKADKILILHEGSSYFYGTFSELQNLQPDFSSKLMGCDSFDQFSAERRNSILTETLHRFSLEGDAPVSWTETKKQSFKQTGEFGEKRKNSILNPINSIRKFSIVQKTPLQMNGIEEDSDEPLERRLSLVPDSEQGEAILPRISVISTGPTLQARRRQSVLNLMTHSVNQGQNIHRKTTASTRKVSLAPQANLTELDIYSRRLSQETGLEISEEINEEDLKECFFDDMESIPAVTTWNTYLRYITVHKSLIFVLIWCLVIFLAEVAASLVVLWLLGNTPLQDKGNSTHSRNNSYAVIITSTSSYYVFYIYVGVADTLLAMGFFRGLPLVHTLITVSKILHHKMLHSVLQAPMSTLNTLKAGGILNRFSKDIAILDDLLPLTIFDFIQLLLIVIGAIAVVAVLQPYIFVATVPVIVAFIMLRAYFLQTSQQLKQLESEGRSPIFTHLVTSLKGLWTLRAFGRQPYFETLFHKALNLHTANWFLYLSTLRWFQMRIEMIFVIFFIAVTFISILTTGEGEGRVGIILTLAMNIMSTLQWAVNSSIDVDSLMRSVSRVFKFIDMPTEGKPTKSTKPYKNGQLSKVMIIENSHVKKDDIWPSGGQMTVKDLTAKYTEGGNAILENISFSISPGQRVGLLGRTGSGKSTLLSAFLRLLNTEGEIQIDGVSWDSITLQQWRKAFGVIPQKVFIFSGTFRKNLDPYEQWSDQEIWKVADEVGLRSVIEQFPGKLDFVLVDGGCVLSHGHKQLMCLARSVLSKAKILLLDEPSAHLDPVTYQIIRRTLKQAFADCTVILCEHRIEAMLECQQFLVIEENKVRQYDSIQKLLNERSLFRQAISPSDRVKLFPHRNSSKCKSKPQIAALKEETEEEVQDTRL

SMILES | EC50
CCN(C(=O)Cn1nc(Cc2cccnc2)c2c(OC3CCCCC3)cccc2c1=O)c1ccc2c(c1)OC(F)(F)O2 [Example 60, 2-(5-(cyclohexyloxy)-1-oxo-4-(pyridin-3-ylmethyl)phthalazin-2(1H)-yl)-N-(2,2-difluorobenzo[d][1,3]dioxol-5-yl)-N-ethylacetamide] | < 10 µM
CCN(C(=O)Cn1nc(Cc2cccnc2)c2cccc(OCCOC)c2c1=O)c1ccc2c(c1)OC(F)(F)O2 [Example 61, N-(2,2-difluorobenzo[d][1,3]dioxol-5-yl)-N-ethyl-2-(8-(2-methoxyethoxy)-1-oxo-4-(pyridin-3-ylmethyl)phthalazin-2(1H)-yl)acetamide] | < 10 µM
CCN(C(=O)Cn1nc(Cc2cccnc2)c2c(OCCOC)cccc2c1=O)c1ccc2c(c1)OC(F)(F)O2 [Example 62, N-(2,2-difluorobenzo[d][1,3]dioxol-5-yl)-N-ethyl-2-(5-(2-methoxyethoxy)-1-oxo-4-(pyridin-3-ylmethyl)phthalazin-2(1H)-yl)acetamide] | < 10 µM
COc1ccc2c(-c3cccc(C#N)c3)nn(CC(=O)N(C)c3ccc4c(c3)OC(F)(F)O4)c(=O)c2c1 [Example 63, 2-(4-(3-cyanophenyl)-7-methoxy-1-oxophthalazin-2(1H)-yl)-N-(2,2-difluorobenzo[d][1,3]dioxol-5-yl)-N-methylacetamide] | < 10 µM
COc1ccc2c(-c3ccc(S(N)(=O)=O)cc3)nn(CC(=O)N(C)c3ccc4c(c3)OC(F)(F)O4)c(=O)c2c1 [Example 64, N-(2,2-difluorobenzo[d][1,3]dioxol-5-yl)-2-(7-methoxy-1-oxo-4-(4-sulfamoylphenyl)phthalazin-2(1H)-yl)-N-methylacetamide] | < 10 µM
CCN(C(=O)Cn1nc(-c2ccc(S(N)(=O)=O)cc2)c2ccc(OC)cc2c1=O)c1ccc2c(c1)OC(F)(F)O2 [Example 65, N-(2,2-difluorobenzo[d][1,3]dioxol-5-yl)-N-ethyl-2-(7-methoxy-1-oxo-4-(4-sulfamoylphenyl)phthalazin-2(1H)-yl)acetamide] | < 10 µM
CCN(C(=O)Cn1nc(-c2ccc(S(N)(=O)=O)cc2)c2ccc(OC)cc2c1=O)c1ccc(OC(F)F)cc1 [Example 66, N-(4-(difluoromethoxy)phenyl)-N-ethyl-2-(7-methoxy-1-oxo-4-(4-sulfamoylphenyl)phthalazin-2(1H)-yl)acetamide] | > 20 µM
CCN(C(=O)Cn1nc(-c2cccc(C#N)c2)c2ccc(OC)cc2c1=O)c1ccc(OC(F)F)cc1 [Example 67, 2-(4-(3-cyanophenyl)-7-methoxy-1-oxophthalazin-2(1H)-yl)-N-(4-(difluoromethoxy)phenyl)-N-ethylacetamide] | < 10 µM
COc1ccc2c(-c3ccc(S(N)(=O)=O)cc3)nn(CC(=O)N(c3ccc4c(c3)OC(F)(F)O4)C(C)C)c(=O)c2c1 [Example 69, N-(2,2-difluorobenzo[d][1,3]dioxol-5-yl)-N-isopropyl-2-(7-methoxy-1-oxo-4-(4-sulfamoyl-phenyl)phthalazin-2(1H)-yl)acetamide] | < 10 µM
COc1ccc2c(-c3cccc(C#N)c3)nn(CC(=O)N(c3ccc4c(c3)OC(F)(F)O4)C(C)C)c(=O)c2c1 [Example 70, 2-(4-(3-cyanophenyl)-7-methoxy-1-oxophthalazin-2(1H)-yl)-N-(2,2-difluorobenzo[d][1,3]dioxol-5-yl)-N-isopropylacetamide] | < 10 µM
COc1ccc2c(-c3ccc(S(N)(=O)=O)cc3)nn(CC(=O)N(c3ccc4c(c3)OC(F)(F)O4)C3CC3)c(=O)c2c1 [Example 71, N-cyclopropyl-N-(2,2-difluorobenzo[d][1,3]dioxol-5-yl)-2-(7-methoxy-1-oxo-4-(4-sulfamoylphenyl)phthalazin-2(1H)-yl)acetamide] | < 10 µM
COc1ccc2c(-c3cccc(C#N)c3)nn(CC(=O)N(c3ccc4c(c3)OC(F)(F)O4)C3CC3)c(=O)c2c1 [Example 72, 2-(4-(3-cyanophenyl)-7-methoxy-1-oxophthalazin-2(1H)-yl)-N-cyclopropyl-N-(2,2-difluorobenzo[d][1,3]dioxol-5-yl)acetamide] | < 10 µM
CCN(C(=O)Cn1nc(-c2ccc(C(N)=O)cc2)c2ccc(OC)cc2c1=O)c1ccc2c(c1)OC(F)(F)O2 [Example 75, 4-(3-(2-((2,2-difluorobenzo[d][1,3]dioxol-5-yl)(ethyl)amino)-2-oxoethyl)-6-methoxy-4-oxo-3,4-dihydrophthalazin-1-yl)benzamide] | < 10 µM
COc1ccc2c(-c3ccc(C(N)=O)cc3)nn(CC(=O)N(C)c3ccc4c(c3)OC(F)(F)O4)c(=O)c2c1 [Example 76, 4-(3-(2-((2,2-difluorobenzo[d][1,3]dioxol-5-yl)(methyl)amino)-2-oxoethyl)-6-methoxy-4-oxo-3,4-dihydrophthalazin-1-yl)benzamide] | < 10 µM
CCN(C(=O)Cn1nc(-c2ccc(C(N)=O)cc2)c2ccc(OC)cc2c1=O)c1ccc2nc(C)oc2c1 [Example 77, 4-(3-(2-(ethyl(2-methylbenzo[d]oxazol-6-yl)amino)-2-oxoethyl)-6-methoxy-4-oxo-3,4-dihydrophthalazin-1-yl)benzamide] | < 10 µM
CCN(C(=O)Cn1nc(C(=O)Nc2ccccc2C#N)c2ccccc2c1=O)c1ccc2c(c1)OC(F)(F)O2 [Example 78, N-(2-cyanophenyl)-3-(2-((2,2-difluorobenzo[d][1,3]dioxol-5-yl)(ethyl)amino)-2-oxoethyl)-4-oxo-3,4-dihydrophthalazine-1-carboxamide] | 10 to 20 µM
CCN(C(=O)Cn1nc(C(=O)Nc2cc(Cl)ccc2C(=O)O)c2ccccc2c1=O)c1ccc2c(c1)OC(F)(F)O2 [Example 79, 4-chloro-2-(3-(2-((2,2-difluorobenzo[d][1,3]dioxol-5-yl)(ethyl)amino)-2-oxoethyl)-4-oxo-3,4-dihydrophthalazine-1-carboxamido)benzoic acid] | < 10 µM
CCN(C(=O)Cn1nc(C(=O)Nc2ccccn2)c2ccccc2c1=O)c1ccc2c(c1)OC(F)(F)O2 [Example 80, 3-(2-((2,2-difluorobenzo[d][1,3]dioxol-5-yl)(ethyl)amino)-2-oxoethyl)-4-oxo-N-(pyridin-2-yl)-3,4-dihydrophthalazine-1-carboxamide] | > 20 µM
CCN(C(=O)Cn1nc(C(=O)N(C)c2ccccn2)c2ccccc2c1=O)c1ccc2c(c1)OC(F)(F)O2 [Example 81, 3-(2-((2,2-difluorobenzo[d][1,3]dioxol-5-yl)(ethyl)amino)-2-oxoethyl)-N-methyl-4-oxo-N-(pyridin-2-yl)-3,4-dihydrophthalazine-1-carboxamide] | 10 to 20 µM
CCc1ccc(N(CC)C(=O)Cn2nc(C(=O)Nc3cc(Cl)ccc3C#N)c3ccccc3c2=O)cc1 [Example 82, N-(5-chloro-2-cyanophenyl)-3-(2-(ethyl(4-ethylphenyl)amino)-2-oxoethyl)-4-oxo-3,4-dihydrophthalazine-1-carboxamide] | < 10 µM
CCN(C(=O)Cn1nc(C(=O)N(CC)c2ccccc2C#N)c2ccccc2c1=O)c1ccc2c(c1)OC(F)(F)O2 [Example 83, N-(2-cyanophenyl)-3-(2-((2,2-difluoro-benzo[d][1,3]dioxol-5-yl)(ethyl)amino)-2-oxoethyl)-N-ethyl-4-oxo-3,4-dihydro-phthalazine-1-carboxamide] | < 10 µM
CCc1ccc(N(CC)C(=O)Cn2nc(C(=O)Nc3cc(Cl)ccc3C(=O)OC)c3ccccc3c2=O)cc1 [Example 84, methyl 4-chloro-2-(3-(2-(ethyl(4-ethylphenyl)amino)-2-oxoethyl)-4-oxo-3,4-dihydrophthalazine-1-carboxamido)benzoate] | < 10 µM
